Read-outs that look alike come from different tables or passages of the source.

Data set [1] has as its system peach aphids (Myzus persicae). The experiment in a line: Myzus test. The class given is in vivo. The following applies: active compound concentration 0.1%, after 6 days; for mortality at 0.1 %: Myzus persicae, 144 h, read-out: destruction in %. As for the experimental part:
(§1) Solvent: 7 parts by weight of dimethylformamide
(§2) Emulsifier: 1 part by weight of alkylaryl polyglycol ether
(§3) To produce a suitable preparation of active compound, 1 part by weight of active compound is mixed with the stated amount of solvent and the stated amount of emulsifier, and the concentrate is diluted with water to the desired concentration.
Seedlings of the broad bean (Vicia faba) which are infested with peach aphids (Myzus persicae) are dipped into the active compound preparation of the desired concentration and placed into a plastic box.
After the desired period of time, the destruction in % is determined. 100% means that all the aphids have been killed; 0% means that none of the aphids have been killed.

Data set [2] deals with common spider mite (Tetranychus urticae). Briefly: Tetranychus test (OP resistant/dip treatment). The following applies: for mortality at 0.0001 %: Tetranychus urticae, 312 h, read-out: destruction in %. The class given is in vivo. As for the experimental part:
Tetranychus test (OP resistant/dip treatment)
Solvent: 3 parts by weight of dimethylformamide
as §2
To produce a suitable preparation of active compound, 1 part by weight of active compound is mixed with the stated amount of solvent and the stated amount of emulsifier, and the concentrate is diluted with emulsifier-containing water to the desired concentrations.
Bean plants (Phaseolus vulgaris) which are heavily infested by all stages of the common spider mite (Tetranychus urticae) are dipped into the active compound preparation of the desired concentration.
After the desired period of time, the activity in % is determined. 100% means that all the spider mites have been killed; 0% means that none of the spider mites have been killed.

Data set [3] concerns mustard beetle larvae (Phaedon cochleariae). Briefly: Phaedon larvae test. It counts as in vivo. The following applies: active compound concentration 0.01%, after 7 days; for mortality at 0.01 %: Phaedon cochleariae, 168 h, read-out: destruction in %. On the procedure:
as §1, §2
(§4) To produce a suitable preparation of active compound, I part by weight of active compound is mixed with the stated amount of solvent and the stated amount of emulsifier, and the concentrate is diluted with water to the desired concentration.
Cabbage leaves (Brassica oleracea) are treated by being dipped into the active compound preparation of the desired concentration and are infested with mustard beetle larvae (Phaedon cochleariae), while the leaves are still moist.
After the desired period of time, the destruction in % is determined. 100% means that all the beetle larvae have been killed; 0% means that none of the beetle larvae have been killed.

Data set [4] deals with caterpillars of the owlet moth (Spodoptera frugiperda). Briefly: Spodoptera frugiperda test. The class given is in vivo. The following applies: active compound concentration 0.1%, after 7 days; for mortality at 0.1 %: Spodoptera frugiperda, 168 h, read-out: destruction in %. On the procedure:
Spodoptera frugiperda test
as §1, §2, §4
Cabbage leaves (Brassica oleracea) are treated by being dipped into the active compound preparation of the desired concentration and are infested with caterpillars of the owlet moth (Spodoptera frugiperda), while the leaves are still moist.
After the desired period of time, the destruction in % is determined. 100% means that all the caterpillars have been killed; 0% means that none of the caterpillars have been killed.

Data set [5] deals with green rice leaf hopper (Nephotettix cincticeps). Briefly: Nephotettix test. The class given is in vivo. The following applies: active compound concentration 0.1%, after 6 days; for mortality at 0.1 %: Nephotettix cincticeps, 144 h, read-out: destruction in %. As for the experimental part:
as §1, §2, §3
Rice seedlings (Oryza sativa) are treated by being dipped into the active compound preparation of the desired concentration and are infested with the green rice leaf hopper (Nephotettix cincticeps), while the seedlings are still moist.
After the desired period of time, the destruction in % is determined. 100% means that all the leaf hoppers have been killed; 0% means that none of the leaf hoppers have been killed.

Data set [6] is described as follows: logp: n-octanol/water partition coefficient by reversed phase HPLC. The class given is physicochemical. The following applies: h2o/ch3cn, read-out: logp (logarithm to base ten of the n-octanol/water partition coefficient). The source says:
*) logp: Logarithm to base ten of the n-octanol/water partition coefficient, determined by reversed phase HPLC analysis using H2 O/CH3 CN.
*^) logp: Logarithm to base ten of the noctanol/water partition
coefficient, determined by reversed phase HPLC analysis using H2

For data set [7], the system named is All larval stages of Lucilia cuprina (OP resistant). The experiment in a line: Fly larvae test/development-inhibitory action. It counts as in vivo. The following applies: active compound concentration 1000 ppm, read-out: activity (larvicidal / development-inhibitory). On the procedure:
Fly larvae test/development-inhibitory action
Test animals: All larval stages of Lucilia cuprina (OP resistant) [Pupae and adults (without contact with the active compound)]
Solvent: 35 parts by weight of ethylene glycol monomethyl ether 35 parts by weight of nonylphenol polyglycol ether
To prepare a suitable formulation, 3 parts by weight of active compound are mixed with 7 parts of the abovementioned solvent-emulsifier mixture, and the resulting emulsion concentrate is diluted with water to the concentration desired in each case.
For each concentration, 30 to 50 larvae are transferred to horse meat (1 cm^3) located in glass tubes, and 500 μl of the test dilution are pipetted onto the meat. The glass tubes are placed into plastic beakers whose bottom is covered with sea sand and kept in a controlled-environmentcabinet (26° C.±1.5° C., 70% relative humidity±10%). Larvicidal activity is checked after 24 hours and 48 hours. After the larvae have left (about 72 hours), the glass tubes are removed and perforated plastic lids are placed on the beakers. After 11/2 times the development period (hatching of the control flies), the hatched flies and the pupae/puparia are counted.
The criterion for the activity is the death of the treated larvae after 48 hours (larvicidal effect), or inhibition of adults hatching from the pupae or inhibition of pupation. […]

[8] abbreviates: A isomer (possible geometric isomer).
[9] abbreviates: B isomer (possible geometric isomer).

For `Oc1ccc(-c2ccc(C3COC(c4c(F)cccc4F)=N3)cc2)cc1` (centres unmarked) [(A), reference compound], the “activity (in words)” value in data set [1] and in data set [3] was “no activity” in each case. Further, the “destruction (in words)” value in data set [2] (active compound concentration 0.0001%, after 13 days) is recorded as “no destruction”.
On to `COc1ccc(-c2ccc(C3COC(c4c(F)cccc4F)=N3)cc2)cc1` (centres unmarked) [(B), reference compound], for which the “activity (in words)” value in data set [4], in data set [3] and in data set [5] was “no activity” throughout.
On to `CC(C)Oc1ccc(-c2ccc(C3COC(c4c(F)cccc4F)=N3)cc2)cc1` (centres unmarked) [(C)], for which the “activity (in words)” value in data set [5] was “no activity”.
For `CC(C)COc1ccc(-c2ccc(C3COC(c4c(F)cccc4F)=N3)cc2)cc1` (centres unmarked) [(D)], the “activity (in words)” value in data set [5] is “no activity”.
Regarding `CCCCOc1ccc(-c2ccc(C3COC(c4c(F)cccc4F)=N3)cc2)cc1` (centres unmarked) [(E)], in data set [5], the “activity (in words)” value is recorded as “no activity”.
Turning to `O=C1CCC(c2ccc(C3COC(c4c(F)cccc4F)=N3)cc2)CC1` (centres unmarked) [Example 1, 2-(2,6-difluorophenyl)-4-[4-(4-oxo-cyclohexyl)-phenyl]-1,3-oxazoline], the chromatographic logP in data set [6] was 2.28. The mortality at 0.1 % in data set [5] turned out to be 90%.
Consider `CC(C)ON=C1CCC(c2ccc(C3COC(c4c(F)cccc4F)=N3)cc2)CC1` (centres unmarked) [Example 4], for which the mortality at 0.1 % in data set [1] and in data set [4] was 100% each time. Besides, the chromatographic logP in data set [6] came out at 4.5. For the same compound, in data set [2], the mortality at 0.0001 % was 98%. For the same compound, in data set [3], the mortality at 0.01 % is 90%.
With `Fc1cccc(F)c1C1=NC(c2ccc(C3CCC4(CC3)OCC(c3ccc(Cl)cc3)O4)cc2)CO1` (centres unmarked) [Example 5, 2-(2,6-difluorophenyl)-4-[4-(4-p-chlorophenylethylenedioxo-cyclohexyl)-phenyl]-1,3-oxazoline], in data set [7], the inhibition at 1000 ppm came out at 100%. Besides, the chromatographic logP in data set [6] stood at 5.37. Further, the mortality at 0.1 % in data set [4] was determined as 100%. Further, in data set [2], the mortality at 0.0001 % came out at 98%. Further, in data set [3], the mortality at 0.01 % was 100%.
Take `CCON=C1CCC(c2ccc(C3COC(c4c(F)cccc4F)=N3)cc2)CC1` (centres unmarked) [Example 6]: the inhibition at 1000 ppm in data set [7] was 100%. For the same compound, the chromatographic logP in data set [6] turned out to be 4. The mortality at 0.1 % in data set [4] and in data set [5] was 100% throughout. Further, the mortality at 0.0001 % in data set [2] is 98%. Moreover, the mortality at 0.01 % in data set [3] was 100%.
Take `CCC(C)ON=C1CCC(c2ccc(C3COC(c4c(F)cccc4F)=N3)cc2)CC1` (centres unmarked) [Example 9]: the chromatographic logP in data set [6] is 4.96. Besides, in data set [4], the mortality at 0.1 % was found to be 100%. Further, in data set [2], the mortality at 0.0001 % was determined as 98%. Further, the mortality at 0.01 % in data set [3] was 100%.
Regarding `Fc1cccc(F)c1C1=NC(c2ccc(C3CCC4(CC3)OCC(c3cccc(Cl)c3)O4)cc2)CO1` (centres unmarked) [Example 10], in data set [6], the chromatographic logP was 5.22. In data set [4], the mortality at 0.1 % worked out at 100%. In data set [2], the mortality at 0.0001 % stood at 98%. In addition, the mortality at 0.01 % in data set [3] worked out at 100%.
As to `CC1OC2(CCC(c3ccc(C4COC(c5c(F)cccc5F)=N4)cc3)CC2)OC1C` (centres unmarked) [Example 13], the chromatographic logP was 4.23 in data set [6] (setting [8]) and 4.31 in data set [6] (setting [9]). In addition, the mortality at 0.0001 % in data set [2] came out at 98%. The mortality at 0.01 % in data set [3] is 100%. Further, the mortality at 0.1 % in data set [5] worked out at 80%.
Turning to `CC(C)(C)C1COC2(CCC(c3ccc(C4COC(c5c(F)cccc5F)=N4)cc3)CC2)O1` (centres unmarked) [Example 15], the mortality at 0.1 % in data set [1] came out at 90%. For the same compound, the chromatographic logP in data set [6] (setting [8]) turned out to be 5.41; in data set [6] (setting [9]) it was 5.48. Also, in data set [2], the mortality at 0.0001 % amounted to 98%. Also, in data set [3], the mortality at 0.01 % was determined as 100%.
`CCCCCCCC1COC2(CCC(c3ccc(C4COC(c5c(F)cccc5F)=N4)cc3)CC2)O1` (centres unmarked) [Example 16]: the mortality at 0.1 % in data set [1] was 90%. The chromatographic logP came out at 6.25 in data set [6] (setting [8]) and 6.31 in data set [6] (setting [9]). For the same compound, in data set [2], the mortality at 0.0001 % was determined as 98%.
Turning to `CCCCCCCCCC1COC2(CCC(c3ccc(C4COC(c5c(F)cccc5F)=N4)cc3)CC2)O1` (centres unmarked) [Example 17], the mortality at 0.1 % was determined as 90% in data set [1] and 100% in data set [4]. For the same compound, the chromatographic logP in data set [6] (setting [8]) was found to be 7.12; in data set [6] (setting [9]) it was 7.2. In addition, in data set [2], the mortality at 0.0001 % came out at 98%. The mortality at 0.01 % in data set [3] was determined as 100%.
In the case of `CCCCOC1(OCCCC)CCC(c2ccc(C3COC(c4c(F)cccc4F)=N3)cc2)CC1` (centres unmarked) [Example 19], the chromatographic logP in data set [6] (setting [8]) amounted to 6.77; in data set [6] (setting [9]), 6.86. For the same compound, the mortality at 0.1 % in data set [4] was determined as 100%. Besides, in data set [2], the mortality at 0.0001 % came out at 98%.
With `Fc1cccc(F)c1C1=NC(c2ccc(C3CCC(=NOCc4ccc(Cl)cc4Cl)CC3)cc2)CO1` (centres unmarked) [Example 21], the mortality at 0.1 % in data set [1] worked out at 80%. Moreover, the chromatographic logP in data set [6] came out at 5.92. In data set [2], the mortality at 0.0001 % is 98%.

Source of the values: patent US6015823A, “4-Cyclohexylphenyl-oxazolines and their use for controlling animal pests” (Bayer Aktiengesellschaft, priority 1996, dated 2000).
